Test system: P12-Ichikawa
Assay: cell viability relative to DMSO control; higher = less cytotoxic
Conditions: 48 h
Outline: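 Library compounds in DMSO were pin-dosed in an 11-point threefold series (47 μM to 0.79 nM) onto leukemia cells in 1536-well plates (5 μl). Plates held 500 cells/well of NOMO1 or SEM or 1000 cells/well of P12-Ichikawa, each adapted for at least four passages in each medium. Luminescence was read with CellTiter-Glo One after 48 h at 37°C. Viability means the per-plate percentage relative to DMSO wells, using cell-free wells as background.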

[1] = HPLM + 10% dialyzed FBS, 0.000781 µM
[2] = HPLM + 10% dialyzed FBS, 0.00234 µM
[3] = HPLM + 10% dialyzed FBS, 0.00702 µM
[4] = HPLM + 10% dialyzed FBS, 0.0211 µM
[5] = HPLM + 10% dialyzed FBS, 0.0632 µM
[6] = HPLM + 10% dialyzed FBS, 0.19 µM
[7] = HPLM + 10% dialyzed FBS, 0.569 µM
[8] = HPLM + 10% dialyzed FBS, 1.71 µM
[9] = HPLM + 10% dialyzed FBS, 5.12 µM
[10] = HPLM + 10% dialyzed FBS, 15.4 µM
[11] = HPLM + 10% dialyzed FBS, 46.1 µM
[12] = RPMI 5 mM glucose + 10% FBS, 0.000781 µM
[13] = RPMI 5 mM glucose + 10% FBS, 0.00234 µM
[14] = RPMI 5 mM glucose + 10% FBS, 0.00702 µM
[15] = RPMI 5 mM glucose + 10% FBS, 0.0211 µM
[16] = RPMI 5 mM glucose + 10% FBS, 0.0632 µM
[17] = RPMI 5 mM glucose + 10% FBS, 0.19 µM
[18] = RPMI 5 mM glucose + 10% FBS, 0.569 µM
[19] = RPMI 5 mM glucose + 10% FBS, 1.71 µM
[20] = RPMI 5 mM glucose + 10% FBS, 5.12 µM
[21] = RPMI 5 mM glucose + 10% FBS, 15.4 µM
[22] = RPMI 5 mM glucose + 10% FBS, 46.1 µM
[23] = RPMI 5 mM glucose + 10% dialyzed FBS, 0.000781 µM
[24] = RPMI 5 mM glucose + 10% dialyzed FBS, 0.00234 µM
[25] = RPMI 5 mM glucose + 10% dialyzed FBS, 0.00702 µM
[26] = RPMI 5 mM glucose + 10% dialyzed FBS, 0.0211 µM
[27] = RPMI 5 mM glucose + 10% dialyzed FBS, 0.0632 µM
[28] = RPMI 5 mM glucose + 10% dialyzed FBS, 0.19 µM
[29] = RPMI 5 mM glucose + 10% dialyzed FBS, 0.569 µM
[30] = RPMI 5 mM glucose + 10% dialyzed FBS, 1.71 µM
[31] = RPMI 5 mM glucose + 10% dialyzed FBS, 5.12 µM
[32] = RPMI 5 mM glucose + 10% dialyzed FBS, 15.4 µM
[33] = RPMI 5 mM glucose + 10% dialyzed FBS, 46.1 µM

Compound	cell viability [1]	cell viability [2]	cell viability [3]	cell viability [4]	cell viability [5]	cell viability [6]	cell viability [7]	cell viability [8]	cell viability [9]	cell viability [10]	cell viability [11]	cell viability [12]	cell viability [13]	cell viability [14]	cell viability [15]	cell viability [16]	cell viability [17]	cell viability [18]	cell viability [19]	cell viability [20]	cell viability [21]	cell viability [22]	cell viability [23]	cell viability [24]	cell viability [25]	cell viability [26]	cell viability [27]	cell viability [28]	cell viability [29]	cell viability [30]	cell viability [31]	cell viability [32]	cell viability [33]
CNCCN(C)Cc1c[nH]nc1-c1ccc(O[C@H]2C[C@H](OCCC3CCOCC3)C2)cc1	104%	120%	124%	119%	122%	122%	135%	123%	95.1%	90.1%	118%	–	–	–	–	–	–	–	–	–	–	–	–	–	–	–	–	–	–	–	–	–	–
CCC[S+](=O)([O-])Nc1ccc(F)c(C(=O)c2c[nH]c3ncc(-c4ccc(Cl)cc4)cc23)c1F	116%	110%	107%	115%	114%	107%	108%	105%	99.9%	98.5%	93.5%	116%	109%	117%	110%	118%	110%	99.1%	110%	108%	96.4%	98.2%	124%	120%	122%	120%	125%	120%	113%	107%	108%	103%	95.2%
O=C1C(CCC(O)c2ccc(F)cc2)C(c2ccc(O)cc2)N1c1ccc(F)cc1 (stereo not given)	108%	112%	114%	116%	119%	124%	117%	117%	117%	120%	106%	114%	117%	123%	118%	122%	121%	126%	121%	127%	121%	117%	101%	106%	105%	117%	118%	111%	120%	116%	124%	114%	106%
CNC(=O)c1cc(Oc2ccc(NC(=O)Nc3ccc(Cl)c(C(F)(F)F)c3)c(F)c2)ccn1	86.4%	89.8%	93.8%	91.3%	92%	95.4%	87.8%	91%	88.3%	81.4%	67.7%	85.4%	92.6%	87.8%	97.8%	86.2%	95.6%	94.2%	83.6%	87.1%	86.8%	65.5%	91.7%	89.9%	90.5%	98.6%	94.1%	91.5%	84.9%	90.3%	84.7%	89.1%	73.5%
COc1cc([C@@H]2c3cc4c(cc3[C@H](O)[C@H]3COC(=O)[C@H]23)OCO4)cc(OC)c1OC	87.8%	39.1%	12.4%	7.37%	7%	8.5%	7.63%	8.21%	6.81%	5.69%	2.44%	84.9%	45.4%	15.6%	9.29%	7.32%	7.35%	6.22%	5.7%	5.67%	4.24%	1.48%	84%	41.4%	19.7%	11.7%	6.34%	8.83%	7.96%	7.78%	7.21%	5.34%	2.45%
Cc1ccc([S+](=O)([O-])NC(=O)NN2CC3CCCC3C2)cc1 (stereo not given)	107%	110%	110%	114%	112%	106%	100%	80.8%	66.4%	44.5%	22.7%	110%	108%	103%	102%	113%	108%	97.7%	70.5%	57.3%	34.7%	20.1%	107%	109%	116%	106%	112%	102%	93.4%	72.4%	51.4%	36.3%	23.9%
Cc1cccc(Nc2nc(N[C@@H]3CCCC[C@@H]3N)ncc2C(N)=O)c1	110%	113%	121%	117%	119%	116%	114%	30.9%	11%	10.8%	14.5%	120%	107%	110%	102%	117%	97.9%	107%	103%	35.1%	13.7%	14.7%	103%	108%	123%	123%	121%	127%	125%	80.5%	24.3%	23.3%	27.5%
CN1CCC(=C2c3ccccc3CCc3sccc32)CC1	110%	108%	111%	106%	111%	118%	112%	111%	114%	111%	90.8%	108%	116%	109%	117%	119%	124%	132%	110%	120%	116%	89.7%	101%	107%	113%	104%	109%	108%	115%	114%	115%	107%	82.4%
OCCN1CCN(CCCN2c3ccccc3Sc3ccc(C(F)(F)F)cc32)CC1	95.4%	98.3%	103%	109%	110%	108%	73.3%	113%	74.2%	18.2%	8.87%	107%	108%	109%	123%	109%	114%	87.8%	107%	74.2%	36.6%	9.41%	99.3%	99.7%	111%	110%	107%	107%	96.4%	104%	78.7%	59.8%	12.7%
O=C(Nc1ccncc1)C(=O)c1cn(Cc2ccc(Cl)cc2)c2ccccc12	103%	101%	111%	96.6%	70.5%	35%	18.4%	21.8%	40.1%	35.2%	46.5%	104%	98.6%	107%	96.5%	62.8%	34.8%	16.5%	24.3%	34.1%	39.2%	44.1%	90.9%	94.2%	97.2%	98.2%	79.1%	46.5%	20.8%	23.1%	34.6%	36.2%	46.6%
Cc1ccc(C)c(OCCCC(C)(C)C(=O)O)c1	87%	92.4%	90.8%	95%	101%	97.9%	93.2%	102%	106%	98%	92.1%	90%	86.9%	84.5%	90.7%	91.1%	92.9%	89%	91.7%	84.1%	92.4%	97.1%	81.2%	82.9%	84.3%	92.6%	84.5%	87.7%	85.5%	86.6%	88.8%	88%	90%
Cc1ccnc(N[S+](=O)([O-])c2ccc(NC(=O)Nc3ccc([S+](=O)([O-])Nc4nccc(C)n4)cc3)cc2)n1	92.4%	97.5%	104%	108%	102%	47.4%	56.9%	7.44%	8.58%	9.29%	7.33%	87.9%	85.5%	94.6%	106%	114%	58.6%	60.3%	7.51%	7.48%	8.73%	5.6%	86.9%	97.1%	95.4%	101%	102%	46.7%	59.4%	7.71%	7.35%	8.39%	5.02%
Clc1ccc(C(Cn2ccnc2)OCc2ccc(Sc3ccccc3)cc2)c(Cl)c1 (stereo not given)	103%	110%	107%	111%	117%	110%	118%	115%	111%	106%	9.24%	115%	120%	109%	115%	116%	108%	110%	117%	109%	105%	14.3%	111%	102%	111%	107%	107%	104%	105%	101%	102%	101%	19.5%
O=C(Nc1cccc2c(=O)cc(-c3nnn[nH]3)oc12)c1ccc(OCCCCc2ccccc2)cc1	86.7%	84.2%	90.4%	93.9%	101%	94.8%	90%	96%	96.9%	101%	15.5%	81%	84.9%	99.9%	91.8%	95.7%	89.4%	88.9%	91%	87.6%	80%	54.6%	73.1%	80.4%	87%	88.7%	86.7%	92.5%	85.1%	81.6%	85.5%	85.4%	21.7%
CN1C(=O)\C(=C/C2=C1N=C(NC3CCOCC3)N=C2)OC4=C(F)C=C(F)C=C4	92.5%	96.2%	95.4%	95.3%	96.9%	90.2%	87.5%	93.2%	82.6%	87.2%	50.7%	92.3%	90.3%	93.5%	95.2%	96.1%	96.6%	91.8%	90%	90.5%	90.4%	39.4%	100%	94.7%	90.6%	87.1%	96.3%	99.1%	93.5%	86.7%	79.3%	81.8%	35.9%
COC1=CC2=C(C=C1CC3=C(F)C(=CC=C3)Cl)C(=O)\C(=C/N2[C@H](CO)C(C)C)C(O)=O	125%	123%	122%	107%	121%	119%	114%	115%	110%	95.9%	13.4%	–	–	–	–	–	–	–	–	–	–	–	116%	125%	124%	117%	125%	121%	119%	112%	103%	67.3%	10%

Reference: the supplement of paper PMC11451515
